{"source": "patent US11485720B2", "about": "“Anti-infective agents” (University of Dundee, priority 2016, dated 2022)", "format_in_all_cases": "cell-based", "key": {"Leishmania donovani": {"test_system": "Leishmania donovani", "test": "Ld-cAxAm-TP-pMIC assay", "details": "read-out: Ld-cAxAm-TP-pMIC pEC50 (converted)"}, "[1]": {"test_system": "Plasmodium falciparum strain 3D7", "test": "Plasmodium falciparum 3D7 in vitro growth inhibition (SYBRgreen I)", "details": "Plasmodium falciparum, 3D7; read-out: pEC50 for Pf 3D7 (converted)", "method_in_brief": "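10-point, 1-in-3 dilution series from a top concentration of 50 μM; parasite growth read as SYBRgreen I fluorescence on double-stranded DNA (ex 485/em 528 nm). EC50 = concentration causing 50% parasite death, from at least 3 independent experiments.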"}, "Cryptosporidium parvum": {"test_system": "Cryptosporidium parvum", "test": "In vitro Crytosporidium inhibition assay", "details": "Cryptosporidium parvum; read-out: Cryptosporidium parvum pEC50 (converted)", "excerpt": "Assay Method for Measurement of In Vitro Inhibition of Crytosporidium.\nThese experiments were run in accordance with the method of Besssoff et. al. Antimicrob. Agents Chemother. 2013, 57:1804-1814. Results from these experiments are provided in the Experimental Results hereinafter."}, "M. tuberculosis H37Rv": {"test_system": "M. tuberculosis H37Rv", "test": "In vitro inhibition of M. tuberculosis H37Rv (MIC, resazurin)", "details": "Mycobacterium tuberculosis, read-out: Mtb MIC"}, "Hep G2": {"test_system": "Hep G2", "test": "Hep G2 in-vitro cytotoxicity assay", "details": "Homo sapiens, HepG2, read-out: Hs HEPG2 pEC50 (converted)", "method_in_brief": "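Hep G2 human hepatocyte carcinoma cells serve as a general mammalian cell toxicity indicator, following the Mersch-Sundermann procedure.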"}}}
{"smiles": "O=C(NCC1CCCCC1)c1cc(=O)c2cc(F)cc(O)c2o1", "note": "[Example 70, N-(cyclohexylmethyl)-6-fluoro-8-hydroxy-4-oxo-4H-chromene-2-carboxamide]", "values": [{"measurement": "EC50", "setting": "Leishmania donovani", "value": 794, "unit": "nM"}, {"measurement": "EC50", "setting": "[1]", "value": 100, "unit": "nM"}, {"measurement": "EC50", "setting": "Cryptosporidium parvum", "value": 39.8, "unit": "nM"}, {"measurement": "MIC", "setting": "M. tuberculosis H37Rv", "value": 30, "unit": "µM"}, {"measurement": "EC50", "setting": "Hep G2", "value": 31600, "unit": "nM"}]}
